According to patent US20200024278A1, “COMPOSITION COMPRISING ANTIBIOTIC COMPOUND AND AN HETEROCYCLIC COMPOUND AND THEIR USE IN PREVENTING OR TREATING BACTERIAL INFECTIONS” (MUTABILIS, priority 2016, published 2020):

How the values were obtained:
ECO 190317 [1] = assay: Fractional Inhibitory Concentration Index, checkerboard assay; assay type: cell-based, E. coli
Protocol: (§1) Method 2: Determination of the Fractional Inhibitory Concentration Index
(§2) Serial 2-fold dilutions of each antibiotic tested were prepared in ca-MHB and mixed in each well of a 96-well microtiter plate so that each row (and column) contained a fixed amount of one agent and increasing amounts of the second agent. The range of drug concentrations used in the checkerboard analysis was such that the dilution range encompassed the MIC for each drug used in the analysis. Broth microdilution plates were inoculated with each strain (Table 3) to yield 5.10^5 CFU/mL in a 100 μL final volume and incubated for 18 h at 35° C. in ambient air. Assays including Fosfomycin were supplemented with 25 μg/ml of Glucose-6-phosphate. MICs were determined after overnight incubation, and the fractional inhibitory concentration (FIC) index was calculated for each well. The FIC index (FICI) was calculated for each combination according to the equation FICI=FICa+FICb=(MIC of drug A in combination/MIC of drug A alone)+(MIC of drug B in combination/MIC of drug B alone). The FICI was interpreted as follows: synergy, FICI […]; indifference, 0.5<FIC<4; and antagonism, FICI>4. The checkerboard assays were performed in duplicate.

ECO 190317 [2] = assay: MIC, broth microdilution (CLSI), substance alone or ATB combined with compound at 4 or 8 μg/mL; assay type: cell-based, E. coli; settings: Escherichia coli; substance alone; ECO 190317; read-out: MIC
How it was run: (§3)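 Per CLSI-M7-A7, MICs are determined in cation-adjusted Mueller-Hinton broth with a final inoculum of 5·10^5 CFU/mL. Plates incubate 16-20 h at 35° C in air and are read by eye. Fosfomycin assays carry 25 μg/ml glucose-6-phosphate.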

ECO UFR39 = assay: as above; assay type: cell-based, E. coli; settings: Escherichia coli; substance alone; ECO UFR39; read-out: MIC
How it was run: as §3

KPN UFR68 = assay: Fractional Inhibitory Concentration Index, checkerboard assay; assay type: cell-based, K. pneumoniae
Protocol: as §1, §2

SAU 29213 = assay: MIC, broth microdilution (CLSI), substance alone or ATB combined with compound at 4 or 8 μg/mL; assay type: cell-based, S. aureus; settings: for MIC ATB combined with compound: compound @4 μg/ml, SAU 29213
How it was run: as §3

SPN 49619 = assay: as above; assay type: cell-based, S. pneumoniae; settings: SPN 49619; for MIC ATB combined with compound: compound @4 μg/ml
How it was run: as §3

PAE 105250 = assay: as above; assay type: cell-based, P. aeruginosa; settings: PAE 105250; for MIC ATB combined with compound: compound @4 μg/ml
How it was run: as §3

PAE UFR90 [3] = assay: as above; assay type: cell-based, P. aeruginosa; settings: PAE UFR90; for MIC ATB combined with compound: compound @4 μg/ml
How it was run: as §3

PAE UFR48 [4] = assay: as above; assay type: cell-based, P. aeruginosa; settings: PAE UFR48; for MIC ATB combined with compound: compound @4 μg/ml
How it was run: as §3

PAE UFR90 [5] = assay: Fractional Inhibitory Concentration Index, checkerboard assay; assay type: cell-based, P. aeruginosa
Protocol: as §1, §2

PAE UFR48 [6] = assay: as above; assay type: cell-based, P. aeruginosa
Protocol: as §1, §2

ECL P99 [7] = assay: MIC, broth microdilution (CLSI), substance alone or ATB combined with compound at 4 or 8 μg/mL; assay type: cell-based, E. cloacae; settings: Enterobacter cloacae; substance alone; ECL P99; read-out: MIC
How it was run: as §3

KPN UFR42 = assay: as above; assay type: cell-based, K. pneumoniae; settings: Klebsiella pneumoniae; substance alone; KPN UFR42; read-out: MIC
How it was run: as §3

KPN BAA-1898 = assay: as above; assay type: cell-based, K. pneumoniae; settings: Klebsiella pneumoniae, BAA1898; substance alone; KPN BAA-1898; read-out: MIC
How it was run: as §3

ECL P99 [8] = assay: Fractional Inhibitory Concentration Index, checkerboard assay; assay type: cell-based, E. cloacae
Protocol: as §1, §2

[9] = Pseudomonas aeruginosa, substance alone, read-out: MIC

NC[C@@H]1C(c2ncco2)=C[C@@H]2CN1C(=O)N2OS(=O)(=O)[O-].O=C(O)C(F)(F)F.[Na+] [Example 5, Sodium and 2,2,2-trifluoroacetate [(2S,5R)-2-(azaniumylmethyl)-7-oxo-3-oxazol-2-yl-1,6-diazabicyclo[3.2.1]oct-3-en-6-yl] Sulfate]
FIC index min (ECO 190317 [1]; compound +ATM): 0.52
FIC index min (ECO 190317 [1]; compound +FEP): 0.25
FIC index min (ECO 190317 [1]; compound +FOS): 0.66
FIC index min (ECO 190317 [1]; compound +MEM): 0.76
FIC index min (ECO 190317 [1]; compound +PIP): ≤0.56
MIC (ECO 190317 [2]): ≤ 0.016 µg/mL
MIC (ECO UFR39): ≤ 0.016 µg/mL
FIC index min (KPN UFR68; compound +ATM): ≤0.008
FIC index min (KPN UFR68; compound +FEP): ≤0.0098
FIC index min (KPN UFR68; compound +FOS): 0.203
FIC index min (KPN UFR68; compound +MEM): 0.020
FIC index min (KPN UFR68; compound +PIP): ≤0.035
MIC ATB combined with compound (SAU 29213; ATB ATM): >32 µg/mL
MIC ATB combined with compound (SAU 29213; ATB FEP): 2 µg/mL
MIC ATB combined with compound (SAU 29213; ATB FOS): 0.5 µg/mL
MIC ATB combined with compound (SAU 29213; ATB MEM): <=0.031 μg/mL
MIC ATB combined with compound (SAU 29213; ATB PIP): 2 µg/mL
MIC (SAU 29213; Staphylococcus aureus, substance alone, SAU 29213 (MSSA 29213), read-out: MIC): > 32 µg/mL
MIC ATB combined with compound (SPN 49619; ATB ATM): >32 µg/mL
MIC ATB combined with compound (SPN 49619; ATB FEP): 0.063 µg/mL
MIC ATB combined with compound (SPN 49619; ATB FOS): 16 µg/mL
MIC ATB combined with compound (SPN 49619; ATB MEM): 0.063 µg/mL
MIC ATB combined with compound (SPN 49619; ATB PIP): 0.5 µg/mL
MIC (SPN 49619; Streptococcus pneumoniae, substance alone, read-out: MIC): > 32 µg/mL
MIC ATB combined with compound (PAE 105250; ATB ATM): <0.031 µg/mL
MIC ATB combined with compound (PAE 105250; ATB FEP): <0.031 µg/mL
MIC ATB combined with compound (PAE 105250; ATB FOS): 16 µg/mL
MIC ATB combined with compound (PAE 105250; ATB MEM): <0.031 µg/mL
MIC ATB combined with compound (PAE 105250; ATB PIP): <0.031 µg/mL
MIC (PAE 105250; [9]): 4 µg/mL
MIC ATB combined with compound (PAE UFR90 [3]; ATB ATM): <0.031 µg/mL
MIC ATB combined with compound (PAE UFR90 [3]; ATB FEP): <0.031 µg/mL
MIC ATB combined with compound (PAE UFR90 [3]; ATB FOS): <0.125 µg/mL
MIC ATB combined with compound (PAE UFR90 [3]; ATB MEM): <0.031 µg/mL
MIC ATB combined with compound (PAE UFR90 [3]; ATB PIP): <0.031 µg/mL
MIC (PAE UFR90 [3]; [9]): 0.25 µg/mL
MIC ATB combined with compound (PAE UFR48 [4]; ATB ATM): <0.031 µg/mL
MIC ATB combined with compound (PAE UFR48 [4]; ATB FEP): <0.031 µg/mL
MIC ATB combined with compound (PAE UFR48 [4]; ATB FOS): 4 µg/mL
MIC ATB combined with compound (PAE UFR48 [4]; ATB MEM): <0.031 µg/mL
MIC ATB combined with compound (PAE UFR48 [4]; ATB PIP): <0.031 µg/mL
MIC (PAE UFR48 [4]; [9]): 2 µg/mL
FIC index min (PAE UFR90 [5]; compound +ATM): 0.76
FIC index min (PAE UFR90 [5]; compound +FEP): 0.69
FIC index min (PAE UFR90 [5]; compound +FOS): 0.69
FIC index min (PAE UFR90 [5]; compound +MEM): 0.81
FIC index min (PAE UFR90 [5]; compound +PIP): 0.56
FIC index min (PAE UFR48 [6]; compound +ATM): 0.34
FIC index min (PAE UFR48 [6]; compound +FEP): 0.33
FIC index min (PAE UFR48 [6]; compound +FOS): 0.88
FIC index min (PAE UFR48 [6]; compound +MEM): 0.63
FIC index min (PAE UFR48 [6]; compound +PIP): 0.52
MIC (ECL P99 [7]): ≤ 0.016 µg/mL
MIC (KPN UFR42): 32 µg/mL
MIC (KPN BAA-1898): 16 µg/mL
FIC index min (ECL P99 [8]; compound +ATM): 0.23
FIC index min (ECL P99 [8]; compound +FEP): 0.23
FIC index min (ECL P99 [8]; compound +FOS): 0.16
FIC index min (ECL P99 [8]; compound +MEM): 0.63
FIC index min (ECL P99 [8]; compound +PIP): 0.32
